Where a SMILES comes first, the peptide text is derived from it. Bridges are numbered along the chain shown (N, C = ends). [ ]: non-standard residue; d: D form. The star is where a group is joined. Trp(1-CH2COOH) = N[C@@H](Cc1cn(CC(=O)O)c2ccccc12)C(=O)O; X19 = c1ccc(N2CCN(c3ncnc(*)n3)CC2)cc1; Hyp = O=C(O)[C@@H]1C[C@@H](O)CN1; X13 = Clc1ccc2oc3c(*)ncnc3c2c1; X16 = c1ccc2c(c1)sc1c(*)ncnc12; X5 = c1ccc2c(c1)oc1c(*)ncnc12; NMeNle = CCCC[C@H](NC)C(=O)O; X18 = c1ccc(-c2ccnc(*)n2)cc1; NMeA = CN[C@@H](C)C(=O)O; Dab = NCC[C@H](N)C(=O)O; X21 = Fc1ccc2nc(*)sc2c1; Dap = NC[C@H](N)C(=O)O; X9 = Fc1cccc2sc(*)nc12; X1 = c1ccc2sc(*)nc2c1; X3 = N#Cc1ccc(*)nc1
What follows are molecules tested against T1, PD-1/PD-L1 interaction (PD-1-Ig / PD-L1-His) (Homo sapiens, UniProt Q9NZQ7) (assay: PD-1/PD-L1 Homogenous Time-Resolved Fluorescence (HTRF) binding assay). Conditions: PD-L1-His 10 nM final, PD-1-Ig 20 nM final; inhibitors pre-incubated with PD-L1-His for 15 m.
T1 construct: TVMV protease site (linker) (C); made in house; host or cells: HEK293T cells
T1 sequence (Q9NZQ7 18-239): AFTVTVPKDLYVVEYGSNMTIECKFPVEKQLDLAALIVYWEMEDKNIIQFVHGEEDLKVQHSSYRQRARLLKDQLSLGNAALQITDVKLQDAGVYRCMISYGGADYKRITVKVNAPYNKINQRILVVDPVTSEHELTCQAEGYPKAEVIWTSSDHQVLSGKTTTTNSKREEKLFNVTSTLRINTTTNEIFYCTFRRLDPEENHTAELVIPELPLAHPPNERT
Description: The ability of the compounds of formula (I) to bind to PD-L1 was investigated using a PD-1/PD-L1 Homogenous Time-Resolved Fluorescence (HTRF) binding assay.
The interaction of PD-1 and PD-L1 can be assessed using soluble, purified preparations of the extracellular domains of the two proteins. The PD-1 and PD-L1 protein extracellular domains were expressed as fusion proteins with detection tags, for PD-1, the tag was the Fc portion of Immunoglobulin (PD-1-Ig) and for PD-L1 it was the 6 histidine motif (PD-L1-His). All binding studies were performed in an HTRF assay buffer consisting of dPBS supplemented with 0.1% […] bovine serum albumin and 0.05% (v/v) Tween-20. For the h/PD-L1-His binding assay, inhibitors were pre-incubated with PD-L1-His (10 nM final) for 15 m in 4 μl of assay buffer, followed by addition of PD-1-Ig (20 nM final) in 1 μl of assay buffer and further incubation for 15 m. HTRF detection was achieved using europium crypate-labeled anti-Ig (1 nM final) and allophycocyanin (APC) labeled anti-His (20 nM final). Antibodies were diluted in HTRF detection buffer and 5 μl was dispensed on top of the binding reaction. The reaction mixture was allowed to equilibrate for 30 minutes and the resulting signal (665 nm/620 nm ratio) was obtained using an EnVision fluorometer. Additional binding assays were established between the human proteins PD-1-Ig/PD-L2-His (20 & 5 nM, respectively) and CD80-His/PD-L1-Ig (100 & 10 nM, respectively).
Recombinant Proteins: Human PD-1 (25-167) with a C-terminal human Fc domain of immunoglobulin G (Ig) epitope tag [hPD-1 (25-167)-3S-IG] and human PD-L1 (18-239) with a C-terminal His epitope tag [hPD-L1(18-239)-TVMV-His] were expressed in HEK293T cells and purified sequentially by ProteinA affinity chromatography and size exclusion chromatography. Human PD-L2-His and CD80-His was obtained through commercial sources.
Table 1 lists the IC50 values for representative examples of this disclosure measured in the PD-1/PD-L1 Homogenous Time-Resolved Fluorescence (HTRF) binding assay.
Work on `CCCC[C@H]1C(=O)N(C)[C@@H](CCCC)C(=O)N[C@@H](CC(C)C)C(=O)N[C@H](C(=O)NCC(N)=O)CSCC(=O)N[C@@H](Cc2ccc(O)cc2)C(=O)N(C)[C@@H](C)C(=O)N[C@@H](CC(N)=O)C(=O)N2CCC[C@H]2C(=O)N[C@@H](CNc2ncnc(N3CCN(c4ccccc4)CC3)n2)C(=O)N[C@@H](CC(C)C)C(=O)N2C[C@H](O)C[C@H]2C(=O)N[C@@H](Cc2c[nH]c3ccccc23)C(=O)N[C@@H](CCNc2ncnc(N3CCN(c4ccccc4)CC3)n2)C(=O)N[C@@H](Cc2cn(CC(=O)O)c3ccccc23)C(=O)N1C` [Compound 1009] ({CH2CO}-Y[NMeA]NP[Dap](X19)L[Hyp]W[Dab](X19)[Trp(1-CH2COOH)][NMeNle][NMeNle]LCG-NH2; thioether N-14) yielded an IC50 of 9.8 nM. For `CCCC[C@H]1C(=O)N(C)[C@@H](CCCC)C(=O)N[C@@H](CC(C)C)C(=O)N[C@H](C(=O)NCC(N)=O)CSCC(=O)N[C@@H](Cc2ccc(O)cc2)C(=O)N(C)[C@@H](C)C(=O)N[C@@H](CC(N)=O)C(=O)N2CCC[C@H]2C(=O)N[C@@H](CNc2nc3c(F)cccc3s2)C(=O)N[C@@H](CC(C)C)C(=O)N2C[C@H](O)C[C@H]2C(=O)N[C@@H](Cc2c[nH]c3ccccc23)C(=O)N[C@@H](CCNc2nc3c(F)cccc3s2)C(=O)N[C@@H](Cc2cn(CC(=O)O)c3ccccc23)C(=O)N1C` [Compound 11007] ({CH2CO}-Y[NMeA]NP[Dap](X9)L[Hyp]W[Dab](X9)[Trp(1-CH2COOH)][NMeNle][NMeNle]LCG-NH2; thioether N-14), the IC50 was 4 nM. `CCCC[C@H]1C(=O)N(C)[C@@H](CCCC)C(=O)N[C@@H](CC(C)C)C(=O)N[C@H](C(=O)NCC(N)=O)CSCC(=O)N[C@@H](Cc2ccc(O)cc2)C(=O)N(C)[C@@H](C)C(=O)N[C@@H](CC(N)=O)C(=O)N2CCC[C@H]2C(=O)N[C@@H](CNc2nc3ccccc3s2)C(=O)N[C@@H](CC(C)C)C(=O)N2C[C@H](O)C[C@H]2C(=O)N[C@@H](Cc2c[nH]c3ccccc23)C(=O)N[C@@H](CCNc2nc3ccccc3s2)C(=O)N[C@@H](Cc2cn(CC(=O)O)c3ccccc23)C(=O)N1C` [Compound 11002] ({CH2CO}-Y[NMeA]NP[Dap](X1)L[Hyp]W[Dab](X1)[Trp(1-CH2COOH)][NMeNle][NMeNle]LCG-NH2; thioether N-14) showed an IC50 of 4.5 nM. In the case of `CCCC[C@H]1C(=O)N(C)[C@@H](CCCC)C(=O)N[C@@H](CC(C)C)C(=O)N[C@H](C(=O)NCC(N)=O)CSCC(=O)N[C@@H](Cc2ccc(O)cc2)C(=O)N(C)[C@@H](C)C(=O)N[C@@H](CC(N)=O)C(=O)N2CCC[C@H]2C(=O)N[C@@H](CNc2ncnc3c2oc2ccc(Cl)cc23)C(=O)N[C@@H](CC(C)C)C(=O)N2C[C@H](O)C[C@H]2C(=O)N[C@@H](Cc2c[nH]c3ccccc23)C(=O)N[C@@H](CCNc2ncnc3c2oc2ccc(Cl)cc23)C(=O)N[C@@H](Cc2cn(CC(=O)O)c3ccccc23)C(=O)N1C` [Compound 21006] ({CH2CO}-Y[NMeA]NP[Dap](X13)L[Hyp]W[Dab](X13)[Trp(1-CH2COOH)][NMeNle][NMeNle]LCG-NH2; thioether N-14), the IC50 is reported as 12 nM. In the case of `CCCC[C@H]1C(=O)N(C)[C@@H](CCCC)C(=O)N[C@@H](CC(C)C)C(=O)N[C@H](C(=O)NCC(N)=O)CSCC(=O)N[C@@H](Cc2ccc(O)cc2)C(=O)N(C)[C@@H](C)C(=O)N[C@@H](CC(N)=O)C(=O)N2CCC[C@H]2C(=O)N[C@@H](CNc2ncnc3c2sc2ccccc23)C(=O)N[C@@H](CC(C)C)C(=O)N2C[C@H](O)C[C@H]2C(=O)N[C@@H](Cc2c[nH]c3ccccc23)C(=O)N[C@@H](CCNc2ncnc3c2sc2ccccc23)C(=O)N[C@@H](Cc2cn(CC(=O)O)c3ccccc23)C(=O)N1C` [Compound 21014] ({CH2CO}-Y[NMeA]NP[Dap](X16)L[Hyp]W[Dab](X16)[Trp(1-CH2COOH)][NMeNle][NMeNle]LCG-NH2; thioether N-14), the IC50 is reported as 5.7 nM. In the case of `CCCC[C@H]1C(=O)N(C)[C@@H](CCCC)C(=O)N[C@@H](CC(C)C)C(=O)N[C@H](C(=O)NCC(N)=O)CSCC(=O)N[C@@H](Cc2ccc(O)cc2)C(=O)N(C)[C@@H](C)C(=O)N[C@@H](CC(N)=O)C(=O)N2CCC[C@H]2C(=O)N[C@@H](CNc2ncnc3c2oc2ccccc23)C(=O)N[C@@H](CC(C)C)C(=O)N2C[C@H](O)C[C@H]2C(=O)N[C@@H](Cc2c[nH]c3ccccc23)C(=O)N[C@@H](CCN)C(=O)N[C@@H](Cc2cn(CC(=O)O)c3ccccc23)C(=O)N1C` [Compound 21013] ({CH2CO}-Y[NMeA]NP[Dap](X5)L[Hyp]W[Dab][Trp(1-CH2COOH)][NMeNle][NMeNle]LCG-NH2; thioether N-14), the IC50 is reported as 3.4 nM. Work on `CCCC[C@H]1C(=O)N(C)[C@@H](CCCC)C(=O)N[C@@H](CC(C)C)C(=O)N[C@H](C(=O)NCC(N)=O)CSCC(=O)N[C@@H](Cc2ccc(O)cc2)C(=O)N(C)[C@@H](C)C(=O)N[C@@H](CC(N)=O)C(=O)N2CCC[C@H]2C(=O)N[C@@H](CNc2ncnc3c2oc2ccccc23)C(=O)N[C@@H](CC(C)C)C(=O)N2C[C@H](O)C[C@H]2C(=O)N[C@@H](Cc2c[nH]c3ccccc23)C(=O)N[C@@H](CCNc2ncnc3c2oc2ccccc23)C(=O)N[C@@H](Cc2cn(CC(=O)O)c3ccccc23)C(=O)N1C` [Compound 21010] ({CH2CO}-Y[NMeA]NP[Dap](X5)L[Hyp]W[Dab](X5)[Trp(1-CH2COOH)][NMeNle][NMeNle]LCG-NH2; thioether N-14) yielded an IC50 of 3.9 nM. `CCCC[C@H]1C(=O)N(C)[C@@H](CCCC)C(=O)N[C@@H](CC(C)C)C(=O)N[C@H](C(=O)NCC(N)=O)CSCC(=O)N[C@@H](Cc2ccc(O)cc2)C(=O)N(C)[C@@H](C)C(=O)N[C@@H](CC(N)=O)C(=O)N2CCC[C@H]2C(=O)N[C@@H](CNc2nccc(-c3ccccc3)n2)C(=O)N[C@@H](CC(C)C)C(=O)N2C[C@H](O)C[C@H]2C(=O)N[C@@H](Cc2c[nH]c3ccccc23)C(=O)N[C@@H](CCN)C(=O)N[C@@H](Cc2cn(CC(=O)O)c3ccccc23)C(=O)N1C` [Compound 1006] ({CH2CO}-Y[NMeA]NP[Dap](X18)L[Hyp]W[Dab][Trp(1-CH2COOH)][NMeNle][NMeNle]LCG-NH2; thioether N-14) gave an IC50 of 11 nM. `CCCC[C@H]1C(=O)N(C)[C@@H](CCCC)C(=O)N[C@@H](CC(C)C)C(=O)N[C@H](C(=O)NCC(N)=O)CSCC(=O)N[C@@H](Cc2ccc(O)cc2)C(=O)N(C)[C@@H](C)C(=O)N[C@@H](CC(N)=O)C(=O)N2CCC[C@H]2C(=O)N[C@@H](CNc2nc3ccc(F)cc3s2)C(=O)N[C@@H](CC(C)C)C(=O)N2C[C@H](O)C[C@H]2C(=O)N[C@@H](Cc2c[nH]c3ccccc23)C(=O)N[C@@H](CCN)C(=O)N[C@@H](Cc2cn(CC(=O)O)c3ccccc23)C(=O)N1C` [Compound 11010] ({CH2CO}-Y[NMeA]NP[Dap](X21)L[Hyp]W[Dab][Trp(1-CH2COOH)][NMeNle][NMeNle]LCG-NH2; thioether N-14) gave an IC50 of 45 nM. Work on `CCCC[C@H]1C(=O)N(C)[C@@H](CCCC)C(=O)N[C@@H](CC(C)C)C(=O)N[C@H](C(=O)NCC(N)=O)CSCC(=O)N[C@@H](Cc2ccc(O)cc2)C(=O)N(C)[C@@H](C)C(=O)N[C@@H](CC(N)=O)C(=O)N2CCC[C@H]2C(=O)N[C@@H](CNc2nccc(-c3ccccc3)n2)C(=O)N[C@@H](CC(C)C)C(=O)N2C[C@H](O)C[C@H]2C(=O)N[C@@H](Cc2c[nH]c3ccccc23)C(=O)N[C@@H](CCNc2nccc(-c3ccccc3)n2)C(=O)N[C@@H](Cc2cn(CC(=O)O)c3ccccc23)C(=O)N1C` [Compound 1003] ({CH2CO}-Y[NMeA]NP[Dap](X18)L[Hyp]W[Dab](X18)[Trp(1-CH2COOH)][NMeNle][NMeNle]LCG-NH2; thioether N-14) yielded an IC50 of 8.3 nM. In the case of `CCCC[C@H]1C(=O)N(C)[C@@H](CCCC)C(=O)N[C@@H](CC(C)C)C(=O)N[C@H](C(=O)NCC(N)=O)CSCC(=O)N[C@@H](Cc2ccc(O)cc2)C(=O)N(C)[C@@H](C)C(=O)N[C@@H](CC(N)=O)C(=O)N2CCC[C@H]2C(=O)N[C@@H](CNc2ccc(C#N)cn2)C(=O)N[C@@H](CC(C)C)C(=O)N2C[C@H](O)C[C@H]2C(=O)N[C@@H](Cc2c[nH]c3ccccc23)C(=O)N[C@@H](CCNc2ccc(C#N)cn2)C(=O)N[C@@H](Cc2cn(CC(=O)O)c3ccccc23)C(=O)N1C` [Compound 1002] ({CH2CO}-Y[NMeA]NP[Dap](X3)L[Hyp]W[Dab](X3)[Trp(1-CH2COOH)][NMeNle][NMeNle]LCG-NH2; thioether N-14), the IC50 is reported as 4.5 nM.

Source: patent US20230022400A1, “IMMUNOMODULATORS” (Bristol-Myers Squibb Company, priority 2019, published 2023)
